Measurements reported in PubChem BioAssay (NCI).
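Cultured in 96-well plates, cells were exposed to test compound for 48 hours across five concentrations. At the TGI there is no net growth.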

What was measured:
Assay in all cases: NCI tumour cell line growth inhibition, 48 h
MDA-MB-435 = tested on: MDA-MB-435
BT-549 breast = tested on: BT-549 breast
HCC-2998 colon = tested on: HCC-2998 colon
HOP-62 NSCLC = tested on: HOP-62 NSCLC
COLO 205 colon = tested on: COLO 205 colon
HL-60(TB) leukemia = tested on: HL-60(TB) leukemia
CCRF-CEM leukemia = tested on: CCRF-CEM leukemia
IGROV1 ovarian = tested on: IGROV1 ovarian
SF-539 CNS = tested on: SF-539 CNS
HT29 colon = tested on: HT29 colon
NCI/ADR-RES ovarian = tested on: NCI/ADR-RES ovarian
HOP-92 NSCLC = tested on: HOP-92 NSCLC
K-562 leukemia = tested on: K-562 leukemia
CAKI-1 renal = tested on: CAKI-1 renal
OVCAR-5 ovarian = tested on: OVCAR-5 ovarian
SF-268 CNS = tested on: SF-268 CNS
PC-3 prostate = tested on: PC-3 prostate
HS 578T breast = tested on: HS 578T breast
HCT-116 colon = tested on: HCT-116 colon
OVCAR-3 ovarian = tested on: OVCAR-3 ovarian
SR leukemia = tested on: SR leukemia
SK-MEL-28 melanoma = tested on: SK-MEL-28 melanoma
OVCAR-4 ovarian = tested on: OVCAR-4 ovarian
HCT-15 colon = tested on: HCT-15 colon
OVCAR-8 ovarian = tested on: OVCAR-8 ovarian
SN12C renal = tested on: SN12C renal
NCI-H23 lung = tested on: NCI-H23 lung
UACC-257 melanoma = tested on: UACC-257 melanoma
SK-MEL-5 melanoma = tested on: SK-MEL-5 melanoma
NCI-H460 lung = tested on: NCI-H460 lung
TK-10 renal = tested on: TK-10 renal
MCF7 breast = tested on: MCF7 breast
EKVX NSCLC = tested on: EKVX NSCLC
NCI-H522 lung = tested on: NCI-H522 lung
MDA-N = tested on: MDA-N
SF-295 CNS = tested on: SF-295 CNS
LOX IMVI melanoma = tested on: LOX IMVI melanoma
MDA-MB-231 breast = tested on: MDA-MB-231 breast
MALME-3M melanoma = tested on: MALME-3M melanoma
SNB-19 CNS = tested on: SNB-19 CNS
MOLT-4 leukemia = tested on: MOLT-4 leukemia
NCI-H226 lung = tested on: NCI-H226 lung
786-0 renal = tested on: 786-0 renal
U251 CNS = tested on: U251 CNS
ACHN renal = tested on: ACHN renal
RPMI-8226 leukemia = tested on: RPMI-8226 leukemia
KM12 colon = tested on: KM12 colon
A549 NSCLC = tested on: A549 NSCLC
SW-620 colon = tested on: SW-620 colon
UO-31 renal = tested on: UO-31 renal
RXF 393 renal = tested on: RXF 393 renal
A498 renal = tested on: A498 renal
DU-145 prostate = tested on: DU-145 prostate
UACC-62 melanoma = tested on: UACC-62 melanoma
M14 melanoma = tested on: M14 melanoma

Measured: TGI

NCCCCC(NC(=O)C(N)Cc1ccc(O)cn1)C(=O)O (stereo not given)
not listed: UACC-62 melanoma | M14 melanoma
> 100 µM: all other assays above

O=c1[nH]c(=O)n(CCOc2ccccc2)cc1Nc1ccccc1
87.4 µM: HOP-62 NSCLC
not listed: BT-549 breast | HL-60(TB) leukemia | SF-539 CNS | OVCAR-4 ovarian | OVCAR-8 ovarian | TK-10 renal | MDA-MB-231 breast | NCI-H226 lung
> 100 µM: all other assays above
